Assay results: patent US20180230399A1, “ORGANIC COMPOUNDS” (GIVAUDAN SA, priority 2014, published 2018)
Like-named read-outs stand apart in the source and are kept apart here.

Legend:
[1] = test system: hepatocytes from male rats (Sprague Dawley); test: In vitro metabolism study in rat hepatocytes in suspension, GC-MS; conditions: for Benzoic acid derivative concentration / Residual conc.: male, Sprague-Dawley, rat, 4 h, 100 μM
Procedure: In order to study in vitro metabolism in rat hepatocytes, Lilial™ and compounds of the present invention may be incubated in the presence of rat hepatocytes in suspension. Reduction in the concentration of Lilial™ and the compounds of the present invention and formation of any of the corresponding benzoic acid derivatives may be analysed by GC-MS.
Cryopreserved hepatocytes from male rats (Sprague Dawley; Lifetechnologies) were defrozen, washed in Cyropreserved Hepatocytes Recovery Medium (CHRM; Lifetechnologies) and suspended in Williams E Medium (WEM; Lifetechnologies). Lilial™, or the compounds of the present invention (final concentration: 100 μM) were added to the cells (1×10^6 viable cells/ml) and suspensions were incubated up to 4 hours at 37° C. on a shaker in duplicate. Metabolism of testosterone was monitored as positive control. Decrease of the test compounds and formation of the corresponding benzoic acid derivative was determined by GC-MS analysis of methyl esters formed after derivatisation with trimethylsilyl diazomethane (Sigma-Aldrich) in methanol. The test compounds react with diazomethane yielding a methyl ketone which was used for the quantification of Lilial™ and the compound of formula (I). Metabolism was stopped with ice cold 1 M HCl, samples were extracted with tert-butyl methyl ether (MTBE) and analysed by GC-MS. Incubations containing testosterone as control were also stopped with ice cold 1 M HCl, centrifuged to separate the cells, filtrated and the decrease of testosterone analysed by LC-MS. To quantify decrease of the test substances and formation of benzoic acid metabolites, calibration curves of reference materials Lilial™ and the compounds of the present invention, tert-butyl benzoic acid (Fluka) was prepared in hepatocyte incubation medium and analysed like the hepatocyte samples.

[2] = Formation of the corresponding esters with Coenzym A; assay type: in vitro ADME; conditions: further experiment
[3] = test system: glucose synthesis; conditions: in vitro; McCune et al 1982; cited from earlier work
[4] = test system: fatty acid synthesis; conditions: in vitro; McCune et al 1982; cited from earlier work
[5] = test system: male rats; conditions: Hunter et al. 1965, Cagen et al. 1989; cited from earlier work
[6] = test system: mice; conditions: cited from earlier work
[7] = test system: primates; conditions: cited from earlier work
[8] = test system: guinea-pigs; conditions: cited from earlier work

Compound: CC(C)Cc1ccc(CCCC=O)cc1
- Benzoic acid derivative concentration [1]: 0.5 µM
- Residual conc. [1]: 0.2 µM

Compound: Cc1cc(CC(C)C)ccc1CCCC=O [Example 3, 4-(4-Isobutyl-2-methylphenyl)butanal]
- Formation of the corresponding esters with Coenzym A [2]: does not provide the formation of the corresponding esters with Coenzym A

Compound: CC(C)(C)c1ccc(C(=O)O)cc1 [tert-Butyl benzoic acid, tert-butyl benzoic acid]
- Inhibition of glucose synthesis [3]: inhibit
- Inhibition of fatty acid synthesis [4]: inhibit
- Testicular effects [5]: testicular effects

Compound: CC(C)(C)c1ccc(CCCC=O)cc1
- Benzoic acid derivative concentration [1]: 1.3 µM
- Residual conc. [1]: 0.7 µM

Compound: CC(C=O)Cc1ccc(C(C)(C)C)cc1 (stereo not shown) [Lilial™, 3-(4-tert-butylphenyl)-2-methylpropanal]
- Effects in studies [6]: No effects
- Effects in studies [7]: No effects
- Effects in studies [8]: No effects
- Decrease of the test compound (in words) [1]: metabolised rapidly
- Residual conc. [1]: 0 µM

Compound: CC(C)c1ccc(CCCC=O)cc1
- Benzoic acid derivative concentration [1]: 1.4 µM
- Residual conc. [1]: 0 µM

Compound: C[C@]12CC[C@H]3[C@@H](CCC4=CC(=O)CC[C@@]43C)[C@@H]1CC[C@@H]2O [testosterone]
- Decrease of the test compound (in words) ([1]; rat hepatocytes, up to 4 hours at 37° C.): rapid decrease
